Our source for the IC50 and TEC/Btk values is patent US20180194762A1 (Pharmacyclics LLC, priority 2017, published 2018).

Structures are written as SMILES. Read-outs that look alike come from different tables or passages of the source.

Holding throughout (type): biochemical
One experiment concerns the target T1, TEC (Homo sapiens, UniProt P42680).
T1 sequence (P42680 1-631): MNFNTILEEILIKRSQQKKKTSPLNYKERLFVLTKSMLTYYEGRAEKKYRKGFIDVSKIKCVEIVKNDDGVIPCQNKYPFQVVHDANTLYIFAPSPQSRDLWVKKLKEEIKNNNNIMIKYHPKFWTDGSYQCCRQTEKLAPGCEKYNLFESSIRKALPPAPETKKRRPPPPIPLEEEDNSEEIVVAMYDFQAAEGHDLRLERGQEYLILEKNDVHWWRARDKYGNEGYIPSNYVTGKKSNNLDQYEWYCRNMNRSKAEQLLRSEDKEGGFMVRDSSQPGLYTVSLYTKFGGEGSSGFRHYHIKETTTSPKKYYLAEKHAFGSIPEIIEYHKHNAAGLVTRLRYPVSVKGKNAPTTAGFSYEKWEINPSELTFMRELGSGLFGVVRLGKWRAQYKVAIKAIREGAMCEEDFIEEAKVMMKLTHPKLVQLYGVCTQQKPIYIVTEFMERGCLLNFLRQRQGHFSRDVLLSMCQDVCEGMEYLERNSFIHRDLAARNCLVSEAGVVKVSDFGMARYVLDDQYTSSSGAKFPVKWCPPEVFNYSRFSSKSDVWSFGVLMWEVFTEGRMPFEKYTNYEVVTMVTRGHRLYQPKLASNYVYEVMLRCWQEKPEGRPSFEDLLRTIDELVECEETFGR
Briefly: Inhibition of a panel of kinases (in vitro HotSpot kinase assay, 33P-ATP, 1 μM ATP). The conditions noted are these: for IC50: HotSpot kinase assay, 1 μM ATP; for TEC/Btk: ratio of TEC IC50 to Btk IC50 (selectivity). In a few lines:
(§1)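 At 1 μM ATP spiked with 33P-ATP, substrate phosphorylation by the purified enzymes gives the extent of inhibition.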

A further experiment deals with T2, panel of kinases (Homo sapiens, UniProt P51813).
T2 sequence (P51813 1-675): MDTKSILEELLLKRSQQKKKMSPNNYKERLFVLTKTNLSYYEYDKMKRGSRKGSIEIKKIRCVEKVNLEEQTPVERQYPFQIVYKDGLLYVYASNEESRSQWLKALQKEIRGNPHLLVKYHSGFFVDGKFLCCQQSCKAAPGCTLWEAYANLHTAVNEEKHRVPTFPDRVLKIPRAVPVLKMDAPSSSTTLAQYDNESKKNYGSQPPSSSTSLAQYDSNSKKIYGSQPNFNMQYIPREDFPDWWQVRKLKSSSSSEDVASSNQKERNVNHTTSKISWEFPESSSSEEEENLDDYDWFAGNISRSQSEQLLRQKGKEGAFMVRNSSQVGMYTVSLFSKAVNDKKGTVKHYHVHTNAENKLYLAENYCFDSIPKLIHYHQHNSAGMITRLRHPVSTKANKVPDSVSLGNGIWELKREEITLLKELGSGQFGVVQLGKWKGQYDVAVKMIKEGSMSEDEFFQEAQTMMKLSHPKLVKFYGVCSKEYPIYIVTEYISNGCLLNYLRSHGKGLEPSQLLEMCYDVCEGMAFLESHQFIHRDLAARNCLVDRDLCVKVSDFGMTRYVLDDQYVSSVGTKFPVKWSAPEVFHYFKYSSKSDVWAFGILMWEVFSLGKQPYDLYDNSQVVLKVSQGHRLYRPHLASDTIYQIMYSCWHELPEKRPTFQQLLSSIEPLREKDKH
Briefly: Inhibition of a panel of kinases (in vitro HotSpot kinase assay, 33P-ATP, 1 μM ATP), other kinases. Conditions: BMX wild-type, read-out: BMX-WT IC50. In a few lines:
as §1

For another experiment, the target named is T3, Btk (Homo sapiens, UniProt Q06187).
T3 construct: purified from insect cells as a full-length construct containing a N-terminal 6X-His tag; His6 (N); made in house; host or cells: insect cells (Method C)
Briefly: Btk in vitro inhibitory activity (one of Method A TR-FRET, Method B electrophoretic mobility shift, Method C radiometric filter binding). In a few lines: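 Three alternative formats were used. A radiometric filter-binding read used 8 nM full-length His-BTK with 0.2 mg/mL poly(Glu-Tyr) 4:1 (C); microfluidic separation of 1 μM FAM-peptide by 1 nM BTK gave IC50 from 12-point curves (B); TR-FRET at Km ATP, 0.5 nM Btk, gave Ki(app)-derived IC50 (A).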
(Mobility shift assays separate free from complexed probe on a gel.)

[1] abbreviates: wild-type Btk, read-out: Btk-WT IC50.
Where [2] appears, read: method is one of A, B or C, not stated which, read-out: IC50 values against Btk.

T3 sequence (Q06187 whole entry): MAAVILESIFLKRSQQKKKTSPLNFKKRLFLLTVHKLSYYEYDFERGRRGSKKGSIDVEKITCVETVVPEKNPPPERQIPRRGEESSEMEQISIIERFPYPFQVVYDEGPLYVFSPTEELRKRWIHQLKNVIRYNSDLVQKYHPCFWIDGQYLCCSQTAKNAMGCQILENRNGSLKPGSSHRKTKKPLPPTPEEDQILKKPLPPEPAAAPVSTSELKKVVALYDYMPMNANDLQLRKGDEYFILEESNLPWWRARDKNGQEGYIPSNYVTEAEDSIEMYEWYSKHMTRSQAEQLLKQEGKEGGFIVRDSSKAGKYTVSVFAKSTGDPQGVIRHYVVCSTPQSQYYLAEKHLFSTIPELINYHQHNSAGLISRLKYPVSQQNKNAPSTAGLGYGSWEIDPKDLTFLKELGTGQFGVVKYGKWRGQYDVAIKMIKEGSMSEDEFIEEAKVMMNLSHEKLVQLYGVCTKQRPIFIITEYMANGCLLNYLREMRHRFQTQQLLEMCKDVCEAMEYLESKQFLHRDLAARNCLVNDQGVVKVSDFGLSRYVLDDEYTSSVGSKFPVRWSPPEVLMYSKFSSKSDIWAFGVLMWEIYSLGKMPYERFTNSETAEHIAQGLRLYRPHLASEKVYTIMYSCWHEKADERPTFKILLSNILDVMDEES

For orientation: IC50 means the concentration needed to halve the response being measured. With `C=CC(=O)N1CC[C@@H](Nc2n[nH]c3nccc(-c4cc(F)cc(CNC(=O)c5noc(C(C)(C)C)n5)c4)c23)C1` [Example 88, 5-tert-butyl-N-{[3-fluoro-5-(3-{[(3R)-1-(prop-2-enoyl)pyrrolidin-3-yl]amino}-1H-pyrazolo[3,4-b]pyridin-4-yl)phenyl]methyl}-1,2,4-oxadiazole-3-carboxamide], the IC50 worked out at 2380 nM against TEC, 713 nM at panel of kinases and 287 nM on Btk (setting [1]). On TEC, the TEC/Btk was determined as 8.
In the case of `C=CC(=O)N1CCC(Nc2n[nH]c3nccc(-c4ccc(CNC(=O)c5ccc(C(C)(C)C)cc5)c(F)c4)c23)CC1` [Example 104, 4-tert-butyl-N-{[2-fluoro-4-(3-{[1-(prop-2-enoyl)piperidin-4-yl]amino}-1H-pyrazolo[3,4-b]pyridin-4-yl)phenyl]methyl}benzamide], the IC50 at TEC was 1560 nM; on panel of kinases, 897 nM; at Btk (setting [2]) it was less than 10 nM; on Btk (setting [1]), 1.87 nM. Also, the TEC/Btk on TEC was determined as 834.
On to `CC(C)(C)c1ccc(C(=O)Nc2ccc(-c3ccnc4[nH]nc(N[C@@H]5CCNC5)c34)cc2F)cc1` [Compound 42, 4-tert-butyl-N-[2-fluoro-4-(3-{[(3R)-pyrrolidin-3-yl]amino}-1H-pyrazolo[3,4-b]pyridin-4-yl)phenyl]benzamide], for which the IC50 against TEC, on panel of kinases and on Btk (setting [1]) was greater than 10000 nM throughout.
Regarding `C=CC(=O)N1CC[C@@H](Nc2n[nH]c3nccc(-c4ccc(CNC(=O)c5nc(C(C)(C)C)n[nH]5)c(F)c4)c23)C1` [Example 82, 3-tert-butyl-N-{[2-fluoro-4-(3-{[(3R)-1-(prop-2-enoyl)pyrrolidin-3-yl]amino}-1H-pyrazolo[3,4-b]pyridin-4-yl)phenyl]methyl}-1H-1,2,4-triazole-5-carboxamide], the values for the IC50 on TEC, on panel of kinases and on Btk (setting [1]) were 357 nM, 113 nM and 30.6 nM, respectively. Besides, the TEC/Btk at TEC is 12.
On to `C=CC(=O)N[C@H]1CCCC[C@@H]1Nc1n[nH]c2nccc(-c3ccc(CNC(=O)c4cc(C(C)(C)C)on4)c(F)c3)c12` [Example 318, 5-tert-butyl-N-({2-fluoro-4-[3-({(1S,2S)-2-[(prop-2-enoyl)amino]cyclohexyl}amino)-1H-pyrazolo[3,4-b]pyridin-4-yl]phenyl}methyl)-1,2-oxazole-3-carboxamide], for which the IC50 against TEC was 8830 nM; at panel of kinases, 3030 nM; on Btk (setting [1]), 26.4 nM.
On to `C=CC(=O)N1CC[C@@H](Nc2n[nH]c3nccc(-c4ccc(CNC(=O)c5cnc(N(C)C)o5)c(F)c4)c23)C1` [Example 177, 2-(dimethylamino)-N-{[2-fluoro-4-(3-{[(3R)-1-(prop-2-enoyl)pyrrolidin-3-yl]amino}-1H-pyrazolo[3,4-b]pyridin-4-yl)phenyl]methyl}-1,3-oxazole-5-carboxamide], for which the IC50 at TEC was 99 nM; on panel of kinases it was 43 nM; at Btk (setting [2]), less than 10 nM; at Btk (setting [1]), 3.91 nM. Moreover, the TEC/Btk on TEC amounted to 25.
For the molecule `CC(=O)OCC(=O)N1C[C@H](Nc2n[nH]c3nccc(-c4ccc(CNC(=O)c5nc(C(C)(C)C)no5)c(F)c4)c23)CC[C@@H]1C` [Example 421, 2-[(2S,5R)-5-{[4-(4-{[(3-tert-butyl-1,2,4-oxadiazole-5-carbonyl)amino]methyl}-3-fluorophenyl)-1H-pyrazolo[3,4-b]pyridin-3-yl]amino}-2-methylpiperidin-1-yl]-2-oxoethyl acetate], the IC50 stood at 1190 nM on TEC, 3130 nM at panel of kinases and 0.915 nM at Btk (setting [1]).
As to `C[C@H]1CC[C@@H](Nc2n[nH]c3nccc(-c4ccc(CNC(=O)c5cc(C(C)(C)O)on5)c(F)c4)c23)CN1C(=O)N(C)C` [Example 418, (2S,5R)-5-({4-[3-fluoro-4-({[5-(2-hydroxypropan-2-yl)-1,2-oxazole-3-carbonyl]amino}methyl)phenyl]-1H-pyrazolo[3,4-b]pyridin-3-yl}amino)-N,N,2-trimethylpiperidine-1-carboxamide], the IC50 against TEC was 3080 nM; on panel of kinases, 3820 nM; on Btk (setting [1]) it was 50.6 nM.
On to `C[C@@H](NC(=O)c1cc(C(C)(C)O)on1)c1ccc(-c2ccnc3[nH]nc(N4CCOCC4)c23)cc1` [Example 404, 5-(2-hydroxypropan-2-yl)-N-[(1R)-1-{4-[3-(morpholin-4-yl)-1H-pyrazolo[3,4-b]pyridin-4-yl]phenyl}ethyl]-1,2-oxazole-3-carboxamide], for which the IC50 against TEC came out at 685 nM; on panel of kinases it was 498 nM; at Btk (setting [1]), 18 nM.
Consider `C[C@H]1CC[C@@H](Nc2n[nH]c3nccc(-c4ccc(CNC(=O)c5nc(C(C)(C)C)no5)c(F)c4)c23)CN1` [Example 147, 3-tert-butyl-N-{[2-fluoro-4-(3-{[(3R,6S)-6-methylpiperidin-3-yl]amino}-1H-pyrazolo[3,4-b]pyridin-4-yl)phenyl]methyl}-1,2,4-oxadiazole-5-carboxamide], for which the IC50 on TEC is greater than 10000 nM; at panel of kinases it was 5530 nM; on Btk (setting [1]) it was 84.4 nM. The TEC/Btk at TEC is on record as greater than 100.
Regarding `C[C@H]1CC[C@@H](Nc2n[nH]c3nccc(-c4ccc(CNC(=O)c5noc(C(C)(C)C)n5)c(F)c4)c23)CN1C(=O)N(C)C` [Example 67, (2S,5R)-5-{[4-(4-{[(5-tert-butyl-1,2,4-oxadiazol-3-yl)formamido]methyl}-3-fluorophenyl)-1H-pyrazolo[3,4-b]pyridin-3-yl]amino}-N,N,2-trimethylpiperidine-1-carboxamide], the IC50 is 121 nM at TEC, 137 nM at panel of kinases, less than 10 nM on Btk (setting [2]) and 0.359 nM on Btk (setting [1]). Besides, the TEC/Btk at TEC is listed as 337.
On to `C[C@H]1CC[C@@H](Nc2n[nH]c3nccc(-c4ccc(CNC(=O)c5noc(C(C)(C)C)n5)c(F)c4)c23)CN1C(=O)N1CCOCC1` [Example 230, 5-tert-butyl-N-{[2-fluoro-4-(3-{[(3R,6S)-6-methyl-1-(morpholine-4-carbonyl)piperidin-3-yl]amino}-1H-pyrazolo[3,4-b]pyridin-4-yl)phenyl]methyl}-1,2,4-oxadiazole-3-carboxamide], for which the IC50 was found to be 472 nM on TEC, 856 nM on panel of kinases and 0.412 nM on Btk (setting [1]). The TEC/Btk on TEC is listed as 1146.
Regarding `C=CC(=O)N1CC=C(c2n[nH]c3nccc(-c4ccc(CNC(=O)c5noc(C(C)(C)C)n5)c(F)c4)c23)C1` [Example 281, 5-tert-butyl-N-[(2-fluoro-4-{3-[1-(prop-2-enoyl)-2,5-dihydro-1H-pyrrol-3-yl]-1H-pyrazolo[3,4-b]pyridin-4-yl}phenyl)methyl]-1,2,4-oxadiazole-3-carboxamide], the figures for the IC50 against TEC, on panel of kinases and on Btk (setting [1]) were 4.92 nM, 2.98 nM and 0.0568 nM, respectively. Further, the TEC/Btk on TEC was 87.
Take `C=CC(=O)N[C@@H]1CCN(c2n[nH]c3nccc(-c4ccc([C@@H](C)NC(=O)c5cc(C(C)(C)O)on5)cc4)c23)C1` [Example 382, 5-(2-hydroxypropan-2-yl)-N-{(1R)-1-[4-(3-{(3R)-3-[(prop-2-enoyl)amino]pyrrolidin-1-yl}-1H-pyrazolo[3,4-b]pyridin-4-yl)phenyl]ethyl}-1,2-oxazole-3-carboxamide]: the results for the IC50 against TEC, at panel of kinases and at Btk (setting [1]) were 433 nM, 435 nM and 1.81 nM, respectively.
